The subject of one test is serotonine (5-HT) uptake. The experiment in a line: Activity to inhibit serotonine (5-HT) uptake. The format is biochemical. The settings on record: rat whole brain; 3H-5-HT 10 nM; 37° C.; pH 7.4; read-out: 5-HT uptake inhibitory activity (IC50 μM). The method in brief:
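Rat whole-brain synaptosomal pellet (prepared in sucrose with 10 μM pargyline) in Krebs-Ringer-phosphate buffer pH 7.4, preincubated with test drug 5 min at 37° C. 3H-5-HT (final 10 nM) then added for 5 min at 37° C.; filter-bound radioactivity counted by liquid scintillation; IC50 = dose halving uptake.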

For test [1], the target named is T1, GnRH receptors (bovine pituitary anterior lobe membrane fraction) (Bos taurus, UniProt P32236).
T1 construct: A bovine pituitary anterior lobe membrane fraction containing GnRH receptors was prepared; from tissue; host or cells: bovine pituitary anterior lobe, membrane fraction
T1 sequence (P32236 1-328): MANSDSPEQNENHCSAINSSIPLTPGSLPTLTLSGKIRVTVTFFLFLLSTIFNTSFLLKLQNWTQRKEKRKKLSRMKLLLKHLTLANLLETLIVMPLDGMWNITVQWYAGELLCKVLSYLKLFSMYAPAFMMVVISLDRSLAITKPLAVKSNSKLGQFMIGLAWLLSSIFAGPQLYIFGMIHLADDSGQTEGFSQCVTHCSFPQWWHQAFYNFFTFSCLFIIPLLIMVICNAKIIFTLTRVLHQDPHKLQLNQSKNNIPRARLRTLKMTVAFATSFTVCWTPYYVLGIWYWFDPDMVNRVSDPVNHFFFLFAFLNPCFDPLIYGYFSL
The experiment in a line: 125I-leuprolerin GnRH receptor binding inhibition test, bovine pituitary anterior lobe membrane fraction. The following applies: 4° C., 90 minutes, read-out: Binding inhibitory activity (IC50 μM) Bovine. On the procedure:
Ten (10) μl of 3×10^4 M aqueous leuprolerin solution and 10 μl of 0.01 mg/ml lactoperoxidase were taken in a tube and 10 μl of Na^125 I solution (37 MBq) was added. After stirring, 10 μl of 0.001% H2 O2 was added and the reaction was conducted at room temperature for 20 minutes. Then, 700 μl of 0.05% TFA solution was added to the tube to terminate the reaction and the reaction mixture was purified by reverse-phase HPLC. The HPLC conditions are shown below. ^125 I-leuprolerin was eluted after a retention time of 26-27 minutes. (C) Preparation of a Bovine Pituitary Anterior Lobe Membrane Fraction Containing GnRH Receptors A bovine pituitary anterior lobe membrane fraction containing GnRH receptors was prepared by the same procedure as described under (B). However, a 10,000×G centrifugation supernatant was recentrifuged at 100,000×G for 1 hour to provide the membrane fraction pellet. […] For the rat and human membrane fractions prepared in (B) and (D), each membrane fraction was diluted with assay buffer to a concentration of 200 μg/ml and distributed in 188 μl portions into tubes. As to the bovine membrane fraction prepared in (C), the membrane fraction was diluted with assay buffer to 750 μg/ml and distributed in 188 μl portions into tubes. […] Where the rat or bovine pituitary anterior lobe membrane fraction was used, the reaction was conducted at 4° C. for 90 minutes. Where the membrane fraction of the CHO with human GnRH receptors expressed was used, the reaction was carried out at 25° C. for 60 minutes. […] After filtration, the radioactivity of ^125 I-leuprolerin remaining on the filter was measured with a γ-counter. The expression (TB-SB)/(TB-NSB)×100 (where SB=radioactivity with the compound added, TB=maximum bound radioactivity, NSB=nonspecifically bound radioactivity) was calculated to find the binding inhibition rate of each test compound.

Where a name gives a salt, the structure may show the parent alone.

With `c1ccc(CCNCCCC2(c3ccccc3)COCc3ccccc32)cc1` (stereo not drawn) [Example I-24, 4-[3-(β-Phenethylamino)propyl]-4-phenylisochroman hydrochloride], the IC50 with serotonine (5-HT) uptake is 0.26 µM; in test [1] it was 7 µM. For the molecule `c1ccc(C2(CCCN3CCCCC34CCc3ccccc3C4)COCc3ccccc32)cc1` (centres unmarked) [Example I-35, 3,4-Dihydro-1'-[3-(4-phenylisochroman-4-yl)propyl]spiro[naphthalene-2(1H),2'-piperidine] hydrochloride], the values for the IC50 (with serotonine (5-HT) uptake; in test [1]) were 0.13 µM and 6 µM, respectively.

Turning to `COc1ccc2c(c1)CCC1(CCCCN1CCCC1(c3ccccc3)COCc3ccccc31)C2` (centres unmarked) [Example I-36, 3,4-Dihydro-6-methoxy-1'-[3-(4-phenylisochroman-4-yl)propyl]spiro[naphthalene-2(1H),2'-piperidine] hydrochloride], the IC50 in the test on serotonine (5-HT) uptake came out at 0.0051 µM; in test [1], 11 µM. On to `COC(=O)c1cccc(CNCCCC2(c3ccccc3)COCc3ccccc32)c1` (stereo not drawn) [Example I-45, Methyl α-[3-(4-Phenylisochroman-4-yl)propylamino]-m-toluate hydrochloride], for which the IC50 in test [1] turned out to be 5 µM. For `COc1cc2c(cc1OC)CC1(CCCCN1CCCCC1(c3ccccc3)COCc3ccccc31)CC2` (centres unmarked) [Example I-52, 3,4-Dihydro-6,7-dimethoxy-1'-[4-(4-phenylisochroman-4-yl)butyl]spiro[naphthalene-2(1H),2'-piperidine] hydrochloride], the IC50 in test [1] was 5 µM.

One may read the IC50 as the point on the concentration scale where inhibition reaches its midpoint.

(Values after patent US5654296A, “Condensed heterocyclic compounds, their production and use” (priority 1994, dated 1997).)
